The source of these data is patent US20240408082A1, “METHODS FOR TREATING CANCERS AND TUMORS” (BEYONDSPRING PHARMACEUTICALS, INC., priority 2021, published 2024).

Molecules are shown by their SMILES.

For the assay, the system named is BXF 1258. The assay is described as follows: 3D clonogenic assay, Example 1, BXF 1258. The assay is classed as cell-based. The settings on record: model BXF 1258. The protocol:
In the present study, plinabulin was characterized for its ability to inhibit anchorage independent growth and ex vivo colony formation of tumor cells in semi-solid medium. The compound was investigated in 87 out of 93 originally planned tumor xenografts representing all major cancer types using a 3D clonogenic assay in a 96-well format with colony count based on image analysis as read-out. By using this assay, the investigational compound was assessed for the ability to inhibit anchorage independent growth and ex vivo colony formation of tumor cells in semi-solid medium.
A master stock solution of plinabulin was prepared by dissolving the compound in DMSO at a concentration of 9.9 mM. Working stock solutions were prepared by diluting the master stock solution with DMSO to a concentration of 0.99 mM (330-fold the highest test concentration). Small aliquots of the master and working stock were stored at −20° C. […]
Plinabulin was investigated in 87 PDX models representing a number of cancer types. […] The percentage of viable cells was determined in a Neubauer-hemocytometer using trypan blue exclusion. […]
The clonogenic assay was carried out in a 96 well plate format using ultra low attachment plates. […] Cultures were incubated at 37° C. and 7.5% CO2 in a humidified atmosphere 13 days in total and monitored closely for colony growth using an inverted microscope. […]

Turning to `CC(C)(C)c1[nH]cnc1/C=c1\[nH]c(=O)/c(=C/c2ccccc2)[nH]c1=O` [plinabulin, (3Z,6Z)-3-Benzylidene-6-{[5-(2-methyl-2-propanyl)-1H-imidazol-4-yl]methylene}-2,5-piperazinedione], the “absolute IC70” value is on record as 3 nM.
